Measured values taken from patent US20240391931A1 (Bristol-Myers Squibb Company, priority 2021, published 2024).
Where a name gives a salt, the structure may show the parent alone.

Tests used:
[1] = target: T1, HER2 wildtype (WT) protein (Homo sapiens, UniProt P04626); assay: HER2 signaling (pHER2 Tyr1248/total HER2 MSD) in N87 cells; format: cell-based; conditions: 1.5 hr compound, 1% FBS
T1 construct: BT474 and N87 cell lines which endogenously overexpress the HER2 wildtype (WT) protein; endogenous in cells; host or cells: BT474, N87
Protocol: (§1) In addition to the engineered cell lines, the following cell lines were used: BT474 (human breast carcinoma), N87 (human gastric carcinoma), NCI-H1781 (human lung adenocarcinoma), and A431 (human epidermoid carcinoma); all cell lines were obtained from the American Type Culture Collection (ATCC, Manassas, VA). NCI-H1781 were grown in complete RPMI 1640 (Life Technologies, Carlsbad, CA) supplemented with 15% fetal bovine serum (FBS, Life Technologies, Carlsbad, CA) and 1% Penicillin-Streptomycin (P/S, Life Technologies, Carlsbad, CA). N87 cells were grown in complete RPMI 1640 supplemented with 10% FBS and 1% P/S. BT474 and A431 cells were grown in DMEM (Life Technologies, Carlsbad, CA) supplemented with 10% FBS and 1% P/S. All cells were maintained and propagated in a humidified 5% CO2 incubator at 37° C.
HER2 signaling was assessed in BT474 and N87 cell lines which endogenously overexpress the HER2 wildtype (WT) protein, in NCI-H1781 cells which endogenously expresses a HER2 mutant protein containing a VC insertion in the kinase domain (HER2VC or G776delinsVC), and in engineered cell lines transduced to express the Her2 mutant protein containing the YVMA insertion (Hek293-HER2YVMA and BEAS2B-HER2YVMA).
BT474, N87, and NCI-H1781 were plated in 96-well tissue-culture treated plates (Corning Costar, Sigma-Aldrich) in full media and incubated overnight. Hek293-HER2YVMA and BEAS2B-HER2YVMA cells were plated in 96-well poly-D-lysine treated plates (BD Bioscience, San Jose, CA). For treatment with test compounds, the media was replaced with corresponding low serum media (1% FBS) containing test compound at 1.1, 0.37, 0.12, 0.041, 0.014, 0.005, 0.0014, 0.0005 μM or DMSO control (0.1%). Cells were incubated with compound for 1.5 hr at 37° C. After compound treatment, the media was removed and cells were lysed for 30 min on ice in complete MSD lysis buffer (prepared using MSD base lysis buffer (Meso-Scale Discovery) supplemented with cOmplete, EDTA-free Protease inhibitor cocktail (Roche), Phosphatase Inhibitor Cocktails 2 and 3 (Sigma-Aldrich), and 1 mM PMSF (Sigma-Aldrich)). Lysates were stored at −70° C. until further analysis.
HER2 signaling was evaluated using phospho (Tyr1248)/total ErbB2 whole cell lysate MSD plates (Meso-Scale Discovery, Gaithersburg, MD). The phospho HER2 signal was normalized to total HER2 for each sample; results are reported as % DMSO control. The normalized data was fitted using a sigmoidal curve analysis program (Graph Pad Prism version 6) with variable Hill slope to determine EC50 values.
The HER2 signaling results are provided in Table 4, under columns titled “BT474-pHER2 EC50”, “N87-pHER2 EC50”, and “NCI-H1781-pHER2 EC50”. Hek293-HER2YVMA ins fall under the heading “HEKYVMA-pHER2 EC50”, Ba/F3 HER2YVMA fall under the heading “Ba/F3 YVMA-pHER2 EC50” and BEAS2B-HER2YVMA fall under the heading “BEAS2B YVMA-pHER2 EC50”.

NCI-H1781 cells = assay: Cellular proliferation in NCI-H1781 cells (CellTiter Glo); format: cell-based, human; conditions: 120 h, redosed after 72 h
Protocol: as §1
Cell proliferation in adherent cells was investigated in two HER2 amplified cell lines (BT474, N87), and a HER2VC expressing cell line (NCI-H1781). BT474, NCI-H1781, and N87 were plated in their appropriate growth media supplemented with either 10% FBS (BT474, N87) or 15% FBS (NCI-H1781) and 1% P/S in 96-well white clear-bottom tissue culture plates (Costar, Sigma-Aldrich). The starting cell densities were 3500, 5500, and 5000 cells for BT474, NCI-H1781, and N87 cells, respectively. An 8-point standard curve with varying cell densities (starting at 50000 cells and serially diluting down 2-fold) was prepared for each cell line and read 6 h after plating. Cells were allowed to attach overnight prior to compound treatment. Compound solutions were prepared by serially diluting test compounds in DMSO (Sigma-Aldrich), then diluting 500× in their corresponding serum free media. Cells were treated by adding a 1:1 volume of test compound to a final concentration of […], 0.004, 0.0014, or 0.0005 μM, in 0.1% DMSO and 5% FBS (for BT474 and N87) or 7.5% FBS (NCI-H1781). In BT474 and NCI-H1781, cell media was replaced and cells were redosed with fresh test compound solutions after 72 h. Viability was determined by CellTiter Glo (Promega, Madison, WI) after 72 h for N87 cells, and after 120 h for BT474 and […] cells. The results were converted to cell numbers using a standard curve; growth inhibition (GI50 values) were determined by Graph Pad Prism. […] The results are provided in Table 4, under columns titled “BT474-GI50”, “N87-GI50”, and “NCI-H1781-GI50”.

[2] = Homo sapiens, NCI-H1781, NCI-H1781 cells

T1 sequence (P04626 23-1255): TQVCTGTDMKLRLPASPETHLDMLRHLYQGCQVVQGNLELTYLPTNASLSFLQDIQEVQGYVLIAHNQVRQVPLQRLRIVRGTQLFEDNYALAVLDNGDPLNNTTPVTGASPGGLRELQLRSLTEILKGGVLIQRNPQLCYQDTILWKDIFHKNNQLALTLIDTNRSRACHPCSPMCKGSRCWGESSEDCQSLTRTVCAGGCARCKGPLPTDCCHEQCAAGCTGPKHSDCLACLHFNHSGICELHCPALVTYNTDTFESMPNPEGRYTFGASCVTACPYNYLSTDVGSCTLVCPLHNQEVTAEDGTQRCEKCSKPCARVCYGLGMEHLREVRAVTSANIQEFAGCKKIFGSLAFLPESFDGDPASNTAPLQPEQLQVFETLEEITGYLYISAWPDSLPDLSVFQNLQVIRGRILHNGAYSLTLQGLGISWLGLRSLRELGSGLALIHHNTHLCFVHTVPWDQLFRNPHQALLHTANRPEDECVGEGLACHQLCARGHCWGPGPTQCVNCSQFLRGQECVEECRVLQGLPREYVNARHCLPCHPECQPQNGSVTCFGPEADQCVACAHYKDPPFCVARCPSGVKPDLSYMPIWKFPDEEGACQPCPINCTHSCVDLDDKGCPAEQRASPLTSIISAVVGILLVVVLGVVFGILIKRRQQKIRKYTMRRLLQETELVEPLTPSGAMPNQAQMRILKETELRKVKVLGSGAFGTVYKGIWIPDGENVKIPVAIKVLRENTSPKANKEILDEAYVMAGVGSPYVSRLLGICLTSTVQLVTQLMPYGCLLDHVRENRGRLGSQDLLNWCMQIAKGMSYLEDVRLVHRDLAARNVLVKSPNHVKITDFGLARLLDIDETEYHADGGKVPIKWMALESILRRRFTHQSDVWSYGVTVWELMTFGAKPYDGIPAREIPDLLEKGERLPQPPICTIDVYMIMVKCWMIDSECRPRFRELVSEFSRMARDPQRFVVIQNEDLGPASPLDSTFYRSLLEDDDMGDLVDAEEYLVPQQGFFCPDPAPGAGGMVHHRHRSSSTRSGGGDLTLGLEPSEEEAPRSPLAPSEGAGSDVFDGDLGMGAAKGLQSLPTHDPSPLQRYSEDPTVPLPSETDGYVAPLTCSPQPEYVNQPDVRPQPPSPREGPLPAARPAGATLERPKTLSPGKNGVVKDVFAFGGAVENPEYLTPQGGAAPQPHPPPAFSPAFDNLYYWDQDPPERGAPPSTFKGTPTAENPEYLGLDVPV

C=CC(=O)N1[C@H](C)Cc2c(sc3ncnc(Nc4ccc(Oc5ccc(C)nc5)c(C)c4)c23)[C@H]1C (racemic) [Compound 166, 1-(6,8-trans-dimethyl-4-((3-methyl-4-((6-methylpyridin-3-yl)oxy)phenyl)amino)-5,8-dihydropyrido[4′,3′:4,5]thieno[2,3-d]pyrimidin-7(6H)-yl)prop-2-en-1-one] showed an EC50 [1] of less than 100 nM.
With Cc1ccc(Oc2ccc(Nc3ncnc4sc5c(c34)C(C)N(C(=O)C=CCN(C)C)C5)cc2C)cn1 (single isomer, unassigned) [Compound 147] the GI50 (NCI-H1781 cells; [2]) was less than 100 nM and the EC50 [1] was less than 100 nM.
COc1ccc(Oc2ccc(Nc3ncnc4sc5c(c34)C(C)CN(C(=O)C=CCN(C)C)C5)cc2C)cn1 (single isomer, unassigned) [Compound 159] gave a GI50 (NCI-H1781 cells; [2]) of 100 to 350 nM and an EC50 [1] of less than 100 nM.
Work on COc1ccc(Oc2ccc(Nc3ncnc4sc5c(c34)C(C)CN(C(=O)C=CCN(C)C)C5)cc2C)cn1 (single isomer, unassigned) [Compound 160] yielded a GI50 (NCI-H1781 cells; NCI-H1781 cells) of less than 100 nM and an EC50 [1] of less than 100 nM.
Work on Cc1ccc(Oc2ccc(Nc3ncnc4sc5c(c34)CC(C)N(C(=O)C=CCN(C)C)C5C)cc2C)cn1 (single isomer, unassigned) [Compound 161] yielded an EC50 [1] of less than 100 nM.
In the case of Cc1ccc(Oc2ccc(Nc3ncnc4sc5c(c34)CC(C)N(C(=O)C=CCN(C)C)C5C)cc2C)cn1 (single isomer, unassigned) [Compound 162], the EC50 [1] is reported as 350 to 1000 nM.
Cc1ccc(Oc2ccc(Nc3ncnc4sc5c(c34)CN(C(=O)C=CCN(C)C)C5C)cc2C)cn1 (single isomer, unassigned) [Compound 169] was tested, and the GI50 (NCI-H1781 cells; NCI-H1781 cells) was less than 100 nM and the EC50 [1] was less than 100 nM.
Cc1ccc(Oc2ccc(Nc3ncnc4sc5c(c34)CN(C(=O)C=CCN(C)C)C5C)cc2C)cn1 (single isomer, unassigned) [Compound 170] was tested, and the GI50 (NCI-H1781 cells; NCI-H1781 cells) was 350 to 1000 nM.
For Cc1ccc(Oc2ccc(Nc3ncnc4sc5c(c34)C(C)CN(C(=O)C=CCN3CCOCC3)C5)cc2C)cn1 (single isomer, unassigned) [Compound 177], the EC50 [1] was less than 100 nM.
In the case of Cc1cc(Nc2ncnc3sc4c(c23)CCN(C(=O)/C=C/CN2CCOCC2)C4)ccc1Oc1ccc2ncnn2c1 [Compound 12], the EC50 [1] is reported as less than 100 nM.
In the case of Cc1ccc(Oc2ccc(Nc3ncnc4sc5c(c34)CCN(C(=O)/C=C/CN3CC4CCC3C4)C5)cc2C)cn1 (stereo not shown) [Compound 14], the EC50 [1] is reported as less than 100 nM.
In the case of Cc1ccc(Oc2ccc(Nc3ncnc4sc5c(c34)CCN(C(=O)/C=C/CN3CC4CC(C3)O4)C5)cc2C)cn1 [Compound 15], the EC50 [1] is reported as less than 100 nM.
With Cc1ccc(Oc2ccc(Nc3ncnc4sc5c(c34)CCN(C(=O)/C=C/CN3CC4CCC(C4)C3)C5)cc2C)cn1 [Compound 16, (E)-4-(3-azabicyclo[3.2.1]octan-3-yl)-1-(4-((3-methyl-4-((6-methylpyridin-3-yl)oxy)phenyl)amino)-5,8-dihydropyrido[4′,3′:4,5]thieno[2,3-d]pyrimidin-7(6H)-yl)but-2-en-1-one benzenesulfonate salt] the EC50 [1] was less than 100 nM.
For Cc1ccc(Oc2ccc(Nc3ncnc4sc5c(c34)CN(C(=O)/C=C/CN(C)C)CC5)cc2C)cn1 [Compound 108, (E)-4-(Dimethylamino)-1-(4-((3-methyl-4-((6-methylpyridin-3-yl)oxy)phenyl)amino)-7,8-dihydropyrido[3′,4′:4,5]thieno[2,3-d]pyrimidin-6(5H)-yl)but-2-en-1-one], the GI50 (NCI-H1781 cells; [2]) was less than 100 nM.
Cc1ccc(Oc2ccc(Nc3ncnc4sc5c(c34)CCN(C(=O)/C=C/CN3CCC(O)C(C)(C)C3)C5)cc2C)cn1 (stereo not shown) [Compound 114] showed a GI50 (NCI-H1781 cells; [2]) of less than 100 nM.
In the case of Cc1ccc(Oc2ccc(Nc3ncnc4sc5c(c34)CCN(C(=O)/C=C/CN3CC4CC4(CO)C3)C5)cc2C)cn1 (stereo not shown) [Compound 118], the GI50 (NCI-H1781 cells; [2]) is reported as less than 100 nM.
Work on Cc1ccc(Oc2ccc(Nc3ncnc4sc5c(c34)CCN(C(=O)/C=C/CN3CC[C@H](F)C3)C5)cc2C)cn1 [Compound 124] yielded a GI50 (NCI-H1781 cells; [2]) of less than 100 nM.
Work on Cc1cc(Nc2ncnc3sc4c(c23)CCN(C(=O)/C=C/CN(C)C)C4)ccc1Oc1ccn2ccnc2c1 [Compound 126, (E)-4-(dimethylamino)-1-(4-((4-(imidazo[1,2-a]pyridin-7-yloxy)-3-methylphenyl)amino)-5,8-dihydropyrido[4′,3′:4,5]thieno[2,3-d]pyrimidin-7(6H)-yl)but-2-en-1-one] yielded a GI50 (NCI-H1781 cells; Homo sapiens, NCI-H1781 cells) of less than 100 nM.
For Cc1nc2cc(Oc3ccc(Nc4ncnc5sc6c(c45)CCN(C(=O)/C=C/CN(C)C)C6)cc3C)ccn2n1 [Compound 127, (E)-4-(dimethylamino)-1-(4-((3-methyl-4-((2-methyl-[1,2,4]triazolo[1,5-a]pyridin-7-yl)oxy)phenyl)amino)-5,6-dihydropyrido[4′,3′:4,5]thieno[2,3-d]pyrimidin-7(8H)-yl)but-2-en-1-one], the GI50 (NCI-H1781 cells; Homo sapiens, NCI-H1781 cells) was 100 to 350 nM.
Cc1cc(Nc2ncnc3sc4c(c23)CN(C(=O)/C=C/CN(C)C)C4)ccc1Oc1ccn2ncnc2c1 [Compound 130, (E)-1-(4-((4-([1,2,4]Triazolo[1,5-a]pyridin-7-yloxy)-3-methylphenyl)amino)-5H-pyrrolo[3′,4′:4,5]thieno[2,3-d]pyrimidin-6(7H)-yl)-4-(dimethylamino)but-2-en-1-one] showed a GI50 (NCI-H1781 cells; [2]) of less than 100 nM.
COc1ccc(Oc2ccc(Nc3ncnc4sc5c(c34)C(C)CN(C(=O)/C=C/CN(C)C)C5)cc2C)cn1 (stereo not shown) [Compound 152, (E)-4-(dimethylamino)-1-(4-((4-((6-methoxypyridin-3-yl)oxy)-3-methylphenyl)amino)-5-methyl-5,8-dihydropyrido[4′,3′:4,5]thieno[2,3-d]pyrimidin-7(6H)-yl)but-2-en-1-one] showed a GI50 (NCI-H1781 cells; [2]) of less than 100 nM.
Cc1cc(Nc2ncnc3sc4c(c23)CCN(C(=O)/C=C/CN(C)C)C4)ccc1Oc1ccc(N(C)C)nc1 [Compound 158, (E)-4-(dimethylamino)-1-(4-((4-((6-(dimethylamino)pyridin-3-yl)oxy)-3-methylphenyl)amino)-5,8-dihydropyrido[4′,3′:4,5]thieno[2,3-d]pyrimidin-7(6H)-yl)but-2-en-1-one] was tested, and the GI50 (NCI-H1781 cells; Homo sapiens, NCI-H1781 cells) was less than 100 nM.
In the case of COc1ccc(Oc2ccc(Nc3ncnc4sc5c(c34)CCN(C(=O)/C=C/CN3CCOCC3)C5)cc2C)cn1 [Compound 164], the GI50 (NCI-H1781 cells; [2]) is reported as 100 to 350 nM.
In the case of Cc1ccc(Oc2ccc(Nc3ncnc4sc5c(c34)C(C)CN(C(=O)/C=C/CN3CCOCC3)C5)cc2C)cn1 (stereo not shown) [Compound 174, (E)-1-(5-Methyl-4-((3-methyl-4-((6-methylpyridin-3-yl)oxy)phenyl)amino)-5,6-dihydropyrido[4′,3′:4,5]thieno[2,3-d]pyrimidin-7(8H)-yl)-4-morpholinobut-2-en-1-one], the GI50 (NCI-H1781 cells; [2]) is reported as 100 to 350 nM.
